Data as given in ChEMBL document CHEMBL4014318, “Rationalized Computer-Aided Design of Matrix-Metalloprotease-Selective Prodrugs” (J Med Chem, 2017).
Where a SMILES comes first, the peptide text is derived from it. [ ]: non-standard residue; d: D form. The star is where a group is joined. ξ: configuration not given here. X1 = COc1cccc2c1C(=O)c1c(O)c3c(c(O)c1C2=O)C[C@](O)(C(=O)CO)C[C@H]3O[C@@H]1C[C@@H](N*)[C@H](O)[C@@H](C)O1; X2 = COc1cccc2c1C(=O)c1c(O)c3c(c(O)c1C2=O)C[C@@](O)(C(=O)CO)C[C@@H]3O[C@H]1C[C@H](N*)[C@@H](O)[C@H](C)O1; Dnp = O=[N+]([O-])c1ccc(*)c([N+](=O)[O-])c1; ξhPhe = NC(CCc1ccccc1)C(=O)O; ξCha = NC(CC1CCCCC1)C(=O)O; Cbz = O=C(OCc1ccccc1)*; Bn = c1ccc(C*)cc1

Assays:
[1] = Retention time of compound by LC-MS analysis
[2] = biological target: T1, Matrix metalloproteinase-9 (Homo sapiens, UniProt P14780); test: Prodrug activation assessed as recombinant human MMP9-mediated Cbz-Glu-Pro-Leu-Gly formation at 10 uM after 12 hrs by LC-MS analysis
T1 sequence (P14780 whole entry): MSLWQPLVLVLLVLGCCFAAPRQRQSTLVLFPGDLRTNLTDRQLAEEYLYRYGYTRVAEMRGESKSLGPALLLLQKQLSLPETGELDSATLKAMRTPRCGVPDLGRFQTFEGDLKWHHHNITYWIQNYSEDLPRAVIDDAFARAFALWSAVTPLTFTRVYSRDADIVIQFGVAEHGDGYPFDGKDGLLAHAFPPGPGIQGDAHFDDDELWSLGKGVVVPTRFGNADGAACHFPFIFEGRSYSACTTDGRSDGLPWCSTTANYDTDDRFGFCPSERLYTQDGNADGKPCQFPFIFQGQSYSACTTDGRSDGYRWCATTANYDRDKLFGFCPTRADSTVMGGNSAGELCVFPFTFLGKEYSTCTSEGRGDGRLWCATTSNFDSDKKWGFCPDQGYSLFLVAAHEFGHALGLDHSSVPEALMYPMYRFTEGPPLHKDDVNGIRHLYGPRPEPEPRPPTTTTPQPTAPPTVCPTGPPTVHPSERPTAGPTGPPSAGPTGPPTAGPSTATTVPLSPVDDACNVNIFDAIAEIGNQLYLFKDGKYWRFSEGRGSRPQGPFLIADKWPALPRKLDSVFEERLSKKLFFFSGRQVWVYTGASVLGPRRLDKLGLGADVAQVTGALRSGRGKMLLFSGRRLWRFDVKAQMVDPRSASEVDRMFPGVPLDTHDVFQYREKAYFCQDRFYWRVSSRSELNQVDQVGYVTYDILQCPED

[3] = biological target: T1, Matrix metalloproteinase-9; test: Prodrug activation assessed as recombinant human MMP9-mediated Ser(O-benzyl)-Tyr-Leu-doxorubicin formation at 10 uM after 12 hrs by LC-MS analysis
[4] = biological target: T2, 72 kDa type IV collagenase (Homo sapiens, UniProt P08253); test: Prodrug activation assessed as recombinant human MMP2-mediated Cbz-Glu-Pro-Leu-Gly formation at 10 uM after 12 hrs by LC-MS analysis
T2 sequence (P08253 whole entry): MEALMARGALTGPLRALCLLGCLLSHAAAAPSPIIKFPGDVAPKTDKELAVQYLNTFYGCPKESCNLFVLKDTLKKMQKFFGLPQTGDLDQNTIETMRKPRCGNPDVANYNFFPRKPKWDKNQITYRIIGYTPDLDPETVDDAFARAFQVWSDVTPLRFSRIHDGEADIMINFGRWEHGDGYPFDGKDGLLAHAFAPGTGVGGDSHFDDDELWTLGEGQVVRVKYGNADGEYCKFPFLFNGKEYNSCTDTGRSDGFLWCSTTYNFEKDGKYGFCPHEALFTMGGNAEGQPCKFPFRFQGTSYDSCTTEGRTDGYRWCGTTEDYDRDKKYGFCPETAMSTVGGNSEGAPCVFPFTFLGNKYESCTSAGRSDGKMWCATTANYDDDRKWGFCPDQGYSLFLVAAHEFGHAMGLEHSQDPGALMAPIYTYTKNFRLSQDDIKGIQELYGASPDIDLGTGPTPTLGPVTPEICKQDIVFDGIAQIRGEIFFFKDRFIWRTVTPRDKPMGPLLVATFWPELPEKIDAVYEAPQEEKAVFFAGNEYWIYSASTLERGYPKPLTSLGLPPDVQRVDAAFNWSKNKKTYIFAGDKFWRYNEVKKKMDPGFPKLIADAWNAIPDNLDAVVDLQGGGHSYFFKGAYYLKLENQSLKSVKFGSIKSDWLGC

[5] = biological target: T2, 72 kDa type IV collagenase; test: Prodrug activation assessed as recombinant human MMP2-mediated Ser(O-benzyl)-Tyr-Leu-doxorubicin formation at 10 uM after 12 hrs by LC-MS analysis
[6] = biological target: T3, Matrix metalloproteinase-14 (Homo sapiens, UniProt P50281); test: Prodrug activation assessed as recombinant human MMP14-mediated Cbz-Glu-Pro-Leu-Gly metabolite at 10 uM after 12 hrs by LC-MS analysis; assay type: ADME
[7] = biological target: T3, Matrix metalloproteinase-14; test: Prodrug activation assessed as recombinant human MMP14-mediated Ser(O-benzyl)-Tyr-Leu-doxorubicin formation at 10 uM after 12 hrs by LC-MS analysis
[8] = biological target: T2, 72 kDa type IV collagenase; test: Prodrug activation assessed as recombinant human MMP2-mediated Leu-doxorubicin formation at 10 uM after 12 hrs by LC-MS analysis
[9] = biological target: T2, 72 kDa type IV collagenase; test: Prodrug activation assessed as recombinant human MMP2-mediated Cbz-Gly-Pro-Ile-Gln-Glu-Hof formation at 10 uM after 12 hrs by LC-MS analysis
[10] = tested on: U-87 MG; test: Cytotoxicity against human U87MG cells assessed as reduction in cell survival after 96 hrs by MTT assay; assay type: functional, cell-based, U-87MG ATCC
[11] = tested on: U-87 MG; test: Cytotoxicity against human U87MG cells treated with MJ02 assessed as reduction in cell survival after 96 hrs in presence of MMP inhibitor GM6001 by MTT assay; assay type: functional, cell-based, U-87MG ATCC
[12] = Prodrug activation in Balb/c immunodeficient nude mouse xenografted with human HT1080 cells assessed as half life for prodrug in tumor homogenates after 60 mins by LC-MS analysis; assay type: tissue-based, Neoplasm; conditions: tissue homogenate, 1 h
[13] = tested on: Plasma; test: Prodrug activation in Balb/c immunodeficient nude mouse xenografted with human HT1080 cells assessed as half life for prodrug in plasma after 60 mins by LC-MS analysis; assay type: cell-free; conditions: 1 h
[14] = tested on: Liver; test: Prodrug activation in Balb/c immunodeficient nude mouse xenografted with human HT1080 cells assessed as half life for prodrug in liver after 60 mins by LC-MS analysis; assay type: tissue-based; conditions: 1 h
[15] = tested on: Kidney; test: Prodrug activation in Balb/c immunodeficient nude mouse xenografted with human HT1080 cells assessed as half life for prodrug in kidney after 60 mins by LC-MS analysis; assay type: tissue-based; conditions: 1 h
[16] = biological target: T1, Matrix metalloproteinase-9; test: Prodrug activation assessed as recombinant human MMP9-mediated compound cleavage at 10 uM after 12 hrs by LC-MS analysis
[17] = biological target: T3, Matrix metalloproteinase-14; test: Prodrug activation assessed as recombinant human MMP14-mediated compound cleavage at 10 uM after 12 hrs by LC-MS analysis
[18] = Retention time of compound by RP-HPLC analysis
[19] = tested on: U-87 MG; test: Cytotoxicity against human U87MG cells treated with MJ02 assessed as reduction in cell survival after 96 hrs by MTT assay; assay type: functional, cell-based, U-87MG ATCC

SMILES: CNc1ccccc1C(=O)NCCCC[C@H](NC(=O)[C@H](C)NC(=O)[C@H](Cc1c[nH]cn1)NC(=O)[C@H](N)CSC)C(N)=O
- Retention time [1]: 2.47 min

SMILES: COc1cccc2c1C(=O)c1c(O)c3c(c(O)c1C2=O)C[C@@](O)(C(=O)CO)C[C@@H]3O[C@H]1C[C@H](NC(=O)[C@H](CC(C)C)NC(=O)[C@H](Cc2ccc(O)cc2)NC(=O)[C@@H](N)COCc2ccccc2)[C@@H](O)[C@H](C)O1
- Retention time [1]: 3.23 min

SMILES: CC(C)C[C@H](NC(=O)[C@@H]1CCCN1C(=O)[C@H](CCC(=O)O)NC(=O)OCc1ccccc1)C(=O)NCC(=O)O (Cbz-EPLG-OH)
- Retention time [1]: 2.87 min

SMILES: COc1cccc2c1C(=O)c1c(O)c3c(c(O)c1C2=O)C[C@@](O)(C(=O)CO)C[C@@H]3O[C@H]1C[C@H](NC(=O)[C@H](CC(C)C)NC(=O)[C@H](Cc2ccc(O)cc2)NC(=O)[C@H](COCc2ccccc2)NC(=O)CNC(=O)[C@H](CC(C)C)NC(=O)[C@@H]2CCCN2C(=O)[C@H](CCC(=O)O)NC(=O)OCc2ccccc2)[C@@H](O)[C@H](C)O1 (Cbz-EPLGS(Bn)YL-X2)
- Retention time [1]: 3.63 min
- Drug metabolism [2]: Metabolite_Detected
- Drug metabolism [3]: Metabolite_Detected
- Drug metabolism [4]: Metabolite_Detected
- Drug metabolism [5]: Metabolite_Detected
- Drug metabolism [6]: Metabolite_Detected
- Drug metabolism [7]: Metabolite_Detected

SMILES: CC[C@H](C)[C@H](NC(=O)[C@@H]1CCCN1C(=O)CNC(=O)OCc1ccccc1)C(=O)N[C@@H](CCC(N)=O)C(=O)N[C@@H](CCC(=O)O)C(=O)NC(CCc1ccccc1)C(=O)O (stereo partly specified) (Cbz-GPIQE[ξhPhe]-OH)
- Retention time [1]: 2.83 min

SMILES: CC[C@H](C)[C@H](NC(=O)[C@@H]1CCCN1C(=O)CNC(=O)OCc1ccccc1)C(=O)N[C@@H](CCC(N)=O)C(=O)N[C@@H](CCC(=O)O)C(=O)NC(CCc1ccccc1)C(=O)N[C@@H](CC(C)C)C(=O)N[C@@H]1C[C@@H](O[C@@H]2C[C@@](O)(C(=O)CO)Cc3c(O)c4c(c(O)c32)C(=O)c2c(OC)cccc2C4=O)O[C@H](C)[C@H]1O (stereo partly drawn) (Cbz-GPIQE[ξhPhe]L-X1)
- Drug metabolism [8]: Metabolite_Detected
- Drug metabolism [9]: Metabolite_Detected
- IC50 [10]: 5000 nM
- IC50 [11]: > 100000 nM
- t1/2 [12]: >= 8.8 min
- t1/2 [13]: > 1.5 h
- t1/2 [14]: >= 17 min
- t1/2 [15]: >= 38.1 min
- Drug metabolism [16]: Metabolite_Notdetected
- Drug metabolism [17]: Metabolite_Notdetected
- Retention time [18]: 3.58 min

SMILES: O=C(O)CNC(=O)C(CC1CCCCC1)NC(=O)[C@@H]1CCCN1c1ccc([N+](=O)[O-])cc1[N+](=O)[O-] (stereo partly drawn) (Dnp-Pro-[ξCha]-Gly-OH)
- Retention time [1]: 2.3 min

SMILES: COc1cccc2c1C(=O)c1c(O)c3c(c(O)c1C2=O)C[C@@](O)(C(=O)CO)C[C@@H]3O[C@H]1C[C@H](N)[C@H](O)[C@H](C)O1 [DOXORUBICIN]
- IC50 [10]: 300 nM

SMILES: COc1cccc2c1C(=O)c1c(O)c3c(c(O)c1C2=O)C[C@@](O)(C(=O)CO)C[C@@H]3O[C@H]1C[C@H](NC(=O)[C@@H](N)CC(C)C)[C@H](O)[C@H](C)O1 [LEURUBICIN]
- Retention time [1]: 2.08 min
- IC50 [19]: 600 nM
